Tested on: immunoglobulin light chain protein WIL-FL T46L
Assay: Differential scanning fluorimetry (thermal shift) assay
Type: binding
Settings: temperature shift [Tm]compound-[Tm]vehicle, recombinant WIL-FL T46L

C[C@]1(c2ccccc2)CCN(c2cc(CO)c3nc(C(=O)N[C@@H]4CCOC4)nn3c2)C1 [Compound 352] was tested, and the DSF (Table A) was “***** (>2.5° C.=*****)”.

In the case of Cc1cc(N2CC[C@](C)(c3ccccc3)C2)cn2nc(C(=O)N3CCC4(CCCN4c4cccc(C(=O)O)n4)C3)nc12 (stereo partly drawn) [Compound 675, 6-(7-(8-methyl-6-((R)-3-methyl-3-phenylpyrrolidin-1-yl)-[1,2,4]triazolo[1,5-a]pyridine-2-carbonyl)-1,7-diazaspiro[4.4]nonan-1-yl)picolinic acid], the DSF (Table B) was “***** (>2.5° C.=*****)”.

Cc1cc(N2CC[C@](C)(c3ccccc3)C2)cn2nc(C34CC(CN)(C3)OC4(C)C)nc12 [Compound 65] was tested, and the DSF (Table A) was “**** (>1.5-2.5° C.=****)”.

Cc1cc(N2CC[C@](C)(c3cccc(F)c3)C2)cn2nc(C34CC(CO3)C4N3CC4(CC4)NC3=O)nc12 (stereo partly drawn) [Compound 507, 6-(1-(6-((R)-3-(3-fluorophenyl)-3-methylpyrrolidin-1-yl)-8-methyl-[1,2,4]triazolo[1,5-a]pyridin-2-yl)-2-oxabicyclo[2.1.1]hexan-5-yl)-4,6-diazaspiro[2.4]heptan-5-one] was tested, and the DSF (Table B) was “***** (>2.5° C.=*****)”.

For Cc1cc(N2CC[C@](C)(c3ccccc3)C2)cn2nc(C(=O)N3CCC4(CCN(c5nccc(C(=O)O)n5)C4)C3)nc12 (some centres unmarked) [Compound 716], the DSF (Table B) was “***** (>2.5° C.=*****)”.

Cc1cc(N2CC[C@](C)(c3ccccc3)C2)cn2nc(C34CC(CO3)C4c3nn[nH]n3)nc12 (some centres unmarked) [Compound 76] was tested, and the DSF (Table A) was “***** (>2.5° C.=*****)”.

In the case of Cc1cc(N2CC[C@](C)(c3ccccc3)C2)cn2nc(C34CC(N5CCC(C(=O)O)CC5)(CO3)C4)nc12 [Compound 472, (R)-1-(1-(8-methyl-6-(3-methyl-3-phenylpyrrolidin-1-yl)-[1,2,4]triazolo[1,5-a]pyridin-2-yl)-2-oxabicyclo[2.1.1]hexan-4-yl)piperidine-4-carboxylic acid], the DSF (Table B) was “***** (>2.5° C.=*****)”.

COC(CO)CNC(=O)c1nc2c(C)cc(N3CC[C@](C)(c4ccccc4)C3)cn2n1 (some centres unmarked) [Compound 148] was tested, and the DSF (Table A) was “***** (>2.5° C.=*****)”.

With Cc1cc(OC[C@H](C)c2ccccc2)cn2nc(C(=O)NC3CC4(CC(O)C4)C3)nc12 (some centres unmarked) [Compound 313] the DSF (Table A) was “***** (>2.5° C.=*****)”.

Cc1cc(N2CC[C@](C)(c3ccccc3)C2)cn2nc(C(=O)N3CC4(C3)CN(c3cccc(C(=O)O)n3)CCO4)nc12 [Compound 665] was tested, and the DSF (Table B) was “***** (>2.5° C.=*****)”.

With Cc1cc(N2CC[C@](C)(c3cccc(F)c3)C2)cn2nc(C(=O)NC3CCN(c4cccc(C(=O)O)n4)CC34COC4)nc12 (some centres unmarked) [Compound 700] the DSF (Table B) was “***** (>2.5° C.=*****)”.

In the case of Cc1cc(N2CC[C@](C)(c3ccccc3)C2)cn2nc(C(=O)N3CC45CN(c6cccc(C(=O)O)n6)CC4(C3)C5)nc12 (some centres unmarked) [Compound 281], the DSF (Table A) was “***** (>2.5° C.=*****)”.

For COC1(CNC(=O)c2nc3c(C)cc(N4CC[C@](C)(c5ccccc5)C4)cn3n2)CN(c2cccc(C(=O)O)n2)C1 [Compound 612], the DSF (Table B) was “***** (>2.5° C.=*****)”.

With C[C@]1(c2ccccc2)CCN(c2cc(CO)c3nc(C(=O)N4CCC5(CCN(c6ccnc(C(=O)O)c6)C5)C4)nn3c2)C1 (some centres unmarked) [Compound 334] the DSF (Table A) was “***** (>2.5° C.=*****)”.

With Cc1cc(N2CC[C@](C)(c3ccccc3)C2)cn2nc(C34CC(CO3)C4NCC3(N)CCOCC3)nc12 (some centres unmarked) [Compound 521] the DSF (Table B) was “***** (>2.5° C.=*****)”.

For COC1CNCC1NC(=O)c1nc2c(C)cc(N3CC[C@](C)(c4ccccc4)C3)cn2n1 (some centres unmarked) [Compound 166], the DSF (Table A) was “***** (>2.5° C.=*****)”.

Cc1nc(C2C3COC2(c2nc4c(CO)cc(N5CC[C@](C)(c6ccccc6)C5)cn4n2)C3)n[nH]1 (some centres unmarked) [Compound 344] was tested, and the DSF (Table A) was “***** (>2.5° C.=*****)”.

Cc1cc(N2CC[C@](C)(c3ccccc3)C2)cn2nc(C34CC(=O)NC(N)(CO3)C4)nc12 (some centres unmarked) [Compound 47] was tested, and the DSF (Table A) was “***** (>2.5° C.=*****)”.

Cc1cc(N2CC[C@@](c3ccccc3)(C(F)F)C2)cn2nc(C(=O)NCC(C)(C)O)nc12 [Compound 327] was tested, and the DSF (Table A) was “***** (>2.5° C.=*****)”.

Cc1cc(N2CC[C@](C)(c3ccccc3)C2)cn2nc(C(=O)N[C@H]3CC[C@H](O)C3)nc12 [Compound 105] was tested, and the DSF (Table A) was “***** (>2.5° C.=*****)”.

Cc1cc(N2CC[C@](C)(c3ccccc3)C2)cn2nc(C(=O)NC34COC(C(C)(C)O)(C3)C4)nc12 [Compound 123] was tested, and the DSF (Table A) was “***** (>2.5° C.=*****)”.

For Cc1cc(N2CC[C@](C)(c3ccccc3)C2)cn2nc(C(N)=O)nc12 [Compound 137], the DSF (Table A) was “***** (>2.5° C.=*****)”.

Cc1cc(N2CC[C@](C)(c3cccc(F)c3)C2)cn2nc(C34CC(CO3)C4N)nc12 (some centres unmarked) [Compound 508] was tested, and the DSF (Table B) was “***** (>2.5° C.=*****)”.

In the case of CCC1(c2ccccc2)CN(c2cc(C)c3nc(C(=O)NC4CCN(c5ccnc(C(=O)O)c5)CC4)nn3c2)C1 [Compound 395], the DSF (Table A) was “***** (>2.5° C.=*****)”.

With Cc1cc(N2CC[C@](C)(c3ccccc3)C2)cn2nc(C(=O)N3CCC(O)(CNc4cccc(C(=O)O)n4)C3)nc12 (some centres unmarked) [Compound 686] the DSF (Table B) was “***** (>2.5° C.=*****)”.

For Cc1cc(N2CC[C@](C)(c3ccccc3)C2)cn2nc(C(=O)NC3CCOC3)nc12 (some centres unmarked) [Compound 118], the DSF (Table A) was “***** (>2.5° C.=*****)”.

In the case of Cc1cc(N2CC[C@](C)(c3ccccc3)C2)cn2nc(C(=O)N[C@@H]3CCCN(c4cccc(C(=O)O)n4)C3)nc12 [Compound 693], the DSF (Table B) was “***** (>2.5° C.=*****)”.

For Cc1cc(N2CC[C@](C)(c3ccccc3)C2)cn2nc(C(=O)N3CCCN(c4ccc(C(=O)O)cn4)CC3)nc12 [Compound 694], the DSF (Table B) was “***** (>2.5° C.=*****)”.

With Cc1cc(N2CC[C@](C)(c3ccccc3)C2)cn2nc(C(=O)NC3CC4(C3)CC(N3CCOC(C(=O)O)C3)C4)nc12 (some centres unmarked) [Compound 358] the DSF (Table A) was “***** (>2.5° C.=*****)”.

With Cc1cc(N2CC[C@](C)(c3ccccc3)C2)cn2nc(S(=O)(=O)NC3CCNCC3)nc12 [Compound 325] the DSF (Table A) was “***** (>2.5° C.=*****)”.

With Cc1cc(N2CCC(C)(C#N)C2)cn2nc(C(=O)N3CC4CN(c5cccc(C(=O)O)n5)CC4C3)nc12 (centres unmarked) [Compound 430] the DSF (Table A) was “* (0-0.5° C.=*)”.

Cc1cc(N2CC[C@](C)(c3ccccc3)C2)cn2nc(C(C)(C)OC3CCNC3)nc12 (some centres unmarked) [Compound 168] was tested, and the DSF (Table A) was “**** (>1.5-2.5° C.=****)”.

With Cc1cc(N2CC[C@](C)(c3ccccc3)C2)cn2nc(C34CC(CO3)C4Cn3cc(CO)nn3)nc12 (some centres unmarked) [Compound 481] the DSF (Table B) was “***** (>2.5° C.=*****)”.

Cc1cc(N2CC[C@](C)(c3ccccc3)C2)cn2nc(C34CC(N5CC6C(C5)C6C(=O)O)(CO3)C4)nc12 (some centres unmarked) [Compound 63] was tested, and the DSF (Table A) was “***** (>2.5° C.=*****)”.

In the case of Cc1cc(N2CC[C@](C)(c3ccccc3)C2)cn2nc([C@]34CO[C@H](C3)C(N)C4)nc12 (some centres unmarked) [Compound 68], the DSF (Table A) was “**** (>1.5-2.5° C.=****)”.

With Cc1cc(N2CC[C@](C)(c3ccccc3)C2)cn2nc(C(=O)NC3CC4(CCC4Nc4cccc(C(=O)O)n4)C3)nc12 (stereo partly drawn) [Compound 662, 6-((6-(8-methyl-6-((R)-3-methyl-3-phenylpyrrolidin-1-yl)-[1,2,4]triazolo[1,5-a]pyridine-2-carboxamido)spiro[3.3]heptan-1-yl)amino)picolinic acid] the DSF (Table B) was “***** (>2.5° C.=*****)”.

With Cc1cc(OC[C@H](C)c2ccccc2)cn2nc(C(=O)NCC34COC(C3)C4)nc12 [Compound 306] the DSF (Table A) was “***** (>2.5° C.=*****)”.

Cc1noc(N2CCC(NC(=O)c3nc4c(C)cc(N5CC[C@](C)(c6ccccc6)C5)cn4n3)CC2)n1 [Compound 290] was tested, and the DSF (Table A) was “***** (>2.5° C.=*****)”.

Cc1cc(N2CC[C@](C)(c3ccccc3)C2)cn2nc(C(=O)NC3C4CC3N(c3cccc(C(=O)O)n3)C4)nc12 (stereo partly drawn) [Compound 697, 6-[5-[[8-methyl-6-[(3R)-3-methyl-3-phenyl-pyrrolidin-1-yl]-[1,2,4]triazolo[1,5-a]pyridine-2-carbonyl]amino]-2-azabicyclo[2.1.1]hexan-2-yl]pyridine-2-carboxylic acid] was tested, and the DSF (Table B) was “***** (>2.5° C.=*****)”.

With Cc1cc(N2CC[C@](C)(c3ccccc3)C2)cn2nc(C(=O)NCC34CCCN3CC(F)C4)nc12 (some centres unmarked) [Compound 171] the DSF (Table A) was “***** (>2.5° C.=*****)”.

For Cc1cc(N2CC[C@](C)(c3ccccc3)C2)cn2nc(C(=O)N3CCCC4(CC(N5CC6C(C5)C6C(=O)O)CO4)C3)nc12 (some centres unmarked) [Compound 355], the DSF (Table A) was “***** (>2.5° C.=*****)”.

For CNC(=O)c1nc2c(C)cc(OC3CCC3(C)c3ccccc3)cn2n1 (centres unmarked) [Compound 16, N,8-dimethyl-6-(2-methyl-2-phenylcyclobutoxy)-[1,2,4]triazolo[1,5-a]pyridine-2-carboxamide], the DSF (Table A) was “* (0-0.5° C.=*)”.

With Cc1cc(OC[C@H](C)c2ccccc2)cn2nc(C34CC(CO3)C4C(N)=O)nc12 (some centres unmarked) [Compound 437] the DSF (Table A) was “*** (>1-1.5° C.=***)”.

Cc1n[nH]c(C23CC(NC(=O)c4nc5c(C)cc(N6CC[C@](C)(c7ccccc7)C6)cn5n4)(CO2)C3)n1 [Compound 591, (R)-8-methyl-N-(1-(3-methyl-1H-1,2,4-triazol-5-yl)-2-oxabicyclo[2.1.1]hexan-4-yl)-6-(3-methyl-3-phenylpyrrolidin-1-yl)-[1,2,4]triazolo[1,5-a]pyridine-2-carboxamide] was tested, and the DSF (Table B) was “***** (>2.5° C.=*****)”.

For Cc1cc(N2CC[C@](C)(c3ccccc3)C2)cn2nc(C(=O)NC3(CO)CCCN(c4cccc(C(=O)O)n4)C3)nc12 (stereo partly drawn) [Compound 682, 6-[3-(hydroxymethyl)-3-[[8-methyl-6-[(3R)-3-methyl-3-phenyl-pyrrolidin-1-yl]-[1,2,4]triazolo[1,5-a]pyridine-2-carbonyl]amino]-1-piperidyl]pyridine-2-carboxylic acid], the DSF (Table B) was “***** (>2.5° C.=*****)”.

For Cc1cc(N2CC[C@](C)(c3ccccc3)C2)cn2nc([C@]34C[C@H](CO3)[C@@H]4N3CC4(CC4)NC3=O)nc12 [Compound 523], the DSF (Table B) was “***** (>2.5° C.=*****)”.

Cc1cc(N2CC[C@](C)(c3ccccc3)C2)cn2nc(C(=O)N[C@H]3C[C@@]4(CCN(c5cccc(C(=O)O)n5)C4)C3)nc12 [Compound 624] was tested, and the DSF (Table B) was “***** (>2.5° C.=*****)”.

In the case of Cc1cc(N2CC[C@](C)(c3ccccc3)C2)cn2nc(C(=O)NC3(C(=O)O)CC3)nc12 [Compound 163], the DSF (Table A) was “***** (>2.5° C.=*****)”.

For Cc1cc(N2CC[C@](C)(c3ccccc3)C2)cn2nc(C(=O)NC34CC(CO)(C3)C4)nc12 [Compound 155], the DSF (Table A) was “***** (>2.5° C.=*****)”.

For Cc1nc(C2C3COC2(c2nc4c(C)cc(N5CC[C@](C)(c6ccccc6)C5)cn4n2)C3)n(C)n1 (some centres unmarked) [Compound 493], the DSF (Table B) was “***** (>2.5° C.=*****)”.

Source: patent publication US20260285857A1, “BICYCLIC AND HETEROCYCLIC AMIDE COMPOUNDS” (priority 2024, published 2026)
